Results published in publication PMC7760626, “Screening of Human CYP1A2 and CYP3A4 Inhibitors from Seaweed In Silico and In Vitro” (Marine Drugs, 2020).
Where “and” joins values, the source holds several entries; their conditions need not be identical. Equal values may be shown once. Read-outs that look alike come from different tables or passages of the source.

Experiments:
[1] = system: CYP1A2; conditions: read-out: IC50 CYP1A2 enzyme activity; cited from earlier work
[2] = system: CYP1A1; conditions: read-out: IC50 CYP1A1 enzyme activity; cited from earlier work
[3] = molecular target: human recombinant CYP3A4 (Homo sapiens, UniProt P08684); experiment: Vivid CYP3A4 red screening kit inhibition assay
human recombinant CYP3A4, sequence (P08684 whole entry): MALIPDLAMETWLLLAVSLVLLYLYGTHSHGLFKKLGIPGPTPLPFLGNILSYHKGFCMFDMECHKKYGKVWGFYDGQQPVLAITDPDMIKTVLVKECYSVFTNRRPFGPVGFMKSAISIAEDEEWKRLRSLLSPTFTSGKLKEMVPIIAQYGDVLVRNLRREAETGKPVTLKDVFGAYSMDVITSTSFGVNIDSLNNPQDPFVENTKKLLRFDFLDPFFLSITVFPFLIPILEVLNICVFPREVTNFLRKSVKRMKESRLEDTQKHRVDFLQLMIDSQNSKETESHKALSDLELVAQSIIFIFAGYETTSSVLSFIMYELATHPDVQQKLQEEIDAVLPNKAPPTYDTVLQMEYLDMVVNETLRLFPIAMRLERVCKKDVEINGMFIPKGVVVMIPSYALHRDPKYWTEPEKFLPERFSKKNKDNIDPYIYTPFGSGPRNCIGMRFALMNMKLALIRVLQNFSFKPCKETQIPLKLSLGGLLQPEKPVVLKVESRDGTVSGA
Method: (§1) Human CYP1A2 and CYP3A4 activities were determined using the Vivid™ CYP1A2 blue screening kit and Vivid™ CYP3A4 red screening kit according to the manufacturer’s instructions. For the CYP1A2 and CYP3A4 inhibition assay, different concentrations (3.125–200 μM) of test compounds or inhibitors were mixed with a master pre-mix comprising of CYP450 BACULOSOMES® reagent and regeneration system which contained glucose-6-phosphate and glucose-6-phosphate dehydrogenase. The mixture was incubated at room temperature for 10 min. Following incubation, each CYP enzyme-specific substrate (Vivid EOMCC for CYP1A2 and Vivid BOMR for CYP3A4) and NADP^+ were added to start the reaction. The plate was immediately transferred into the fluorescent plate reader and read in 1 min intervals for 60 min at Ex 415 nm/Em 460 nm (CYP1A2) and Ex 550 nm/Em 590 nm (CYP3A4), respectively. […] The plots were made with Graph-Pad Prism software (Graph-Pad, San Diego, CA, USA).

[4] = system: CYP3A4; conditions: read-out: IC50 CYP3A4 enzyme activity; cited from earlier work
[5] = molecular target: T1, CYP1A2 (Homo sapiens, UniProt P05177); experiment: Vivid CYP1A2 blue screening kit inhibition assay; conditions: 3.125–200 μM; for effect on CYP1A2 activity (in words): in vitro
T1 sequence (P05177 1-516): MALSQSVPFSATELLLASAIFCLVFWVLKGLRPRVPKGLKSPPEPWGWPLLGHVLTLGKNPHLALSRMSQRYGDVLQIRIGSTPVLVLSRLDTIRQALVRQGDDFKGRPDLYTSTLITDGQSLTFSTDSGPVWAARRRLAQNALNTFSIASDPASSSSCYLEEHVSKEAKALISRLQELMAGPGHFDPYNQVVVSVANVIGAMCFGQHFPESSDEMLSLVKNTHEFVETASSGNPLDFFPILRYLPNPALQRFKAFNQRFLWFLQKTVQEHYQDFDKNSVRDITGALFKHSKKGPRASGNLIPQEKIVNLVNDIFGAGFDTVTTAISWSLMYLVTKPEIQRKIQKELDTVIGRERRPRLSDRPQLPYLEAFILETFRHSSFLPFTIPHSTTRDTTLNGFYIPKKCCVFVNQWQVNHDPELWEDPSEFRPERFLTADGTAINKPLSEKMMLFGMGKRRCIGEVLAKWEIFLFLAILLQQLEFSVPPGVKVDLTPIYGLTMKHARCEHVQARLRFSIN
Method: as §1

[6] = system: CYP1A1; design: method as in PMID 31655123; conditions: cited from earlier work
[7] = system: CYP3A4; conditions: cited from earlier work
[8] = system: CYP1A2; conditions: cited from earlier work
[9] = system: CYP2D6; conditions: cited from earlier work
[10] = system: CYP2E1; conditions: cited from earlier work
[11] = system: CYP2C19; conditions: cited from earlier work
[12] = CYP1A2 In Vitro IC50, CYP1A2 BACULOSOMES, substrate Vivid EOMCC, n.i. = no inhibition

## CC(=O)O[C@H]1CC(C)(C)C(=C=C/C(C)=C/C=C/C(C)=C/C=C/C=C(C)/C=C/C=C(\C)C(=O)C[C@@]23O[C@]2(C)C[C@@H](O)CC3(C)C)[C@](C)(O)C1 [Fucoxanthin, fucoxanthin]
[1]
  IC50: 49 µM
[2]
  IC50: 12.5 µM
[3]; CYP3A4 In Vitro IC50, CYP3A4 BACULOSOMES, substrate Vivid BOMR, 3.125–200 μM, n.i. = no inhibition
  IC50: 24.4 µM
[4]
  IC50: 11 µM
[5]; [12]
  IC50: 30.3 µM
[5]; human, recombinant human CYP1A2 (CYP450 BACULOSOMES reagent), probe Vivid EOMCC, CYP1A2 In Vitro IC50, CYP1A2 BACULOSOMES, substrate Vivid EOMCC, n.i. = no inhibition
  IC50 at 60 min: 30.2 µM

## COc1ccc([C@@H]2CC(=O)c3c(O)cc(O[C@@H]4O[C@H](CO[C@@H]5O[C@@H](C)[C@H](O)[C@@H](O)[C@H]5O)[C@@H](O)[C@H](O)[C@H]4O)cc3O2)cc1O [Hesperidin, hesperidin]
[3]; in vitro, at high concentrations
  effect on CYP3A4 activity (in words): slightly inhibited
[5]
  effect on CYP1A2 activity (in words): did not show any significant effect
[5]; listed as HSP
  effect on CYP1A2 activity (in words): no significant inhibitory effect

## O=c1c(O)c(-c2ccc(O)cc2O)oc2cc(O)cc(O)c12 [Morin, morin hydrate]
[6]
  IC50: 126 µM
[5]; [12]
  IC50: 41.8 µM and 41.9 µM

## O=c1c(O)c(-c2ccc(O)c(O)c2)oc2cc(O)cc(O)c12 [Quercetin, quercetin]
[7]
  inhibitory effect against CYP3A4 (in words): moderate effect
[8]
  effect on CYP1A2 (in words): did not show any significant effect
[9]
  inhibitory effect against CYP2D6 (in words): strong inhibitory effect
[10]
  effect on CYP2E1 (in words): did not show any significant effect
[11]
  inhibitory effect against CYP2C19 (in words): moderate effect
